Measurements taken from paper PMC10221314 (Pharmaceuticals, 2023).

Key:
[1] = target: T1, PPARα (Homo sapiens, UniProt Q07869); test: NR selectivity one-hybrid assay in HEK-293T cells (PPARα); format: cell-based; conditions: activated by fenofibrate
T1 construct: a fusion plasmid of Gal4 DBD-NR LBD (comprising RXRα, RXRβ, RXRγ, PPARα, PPARβ, PPARγ, LXRα, LXRβ, GPBAR, and PXR); expressed in transfected cells; host or cells: HEK-293T
T1 sequence (Q07869 239-466 limits assumed): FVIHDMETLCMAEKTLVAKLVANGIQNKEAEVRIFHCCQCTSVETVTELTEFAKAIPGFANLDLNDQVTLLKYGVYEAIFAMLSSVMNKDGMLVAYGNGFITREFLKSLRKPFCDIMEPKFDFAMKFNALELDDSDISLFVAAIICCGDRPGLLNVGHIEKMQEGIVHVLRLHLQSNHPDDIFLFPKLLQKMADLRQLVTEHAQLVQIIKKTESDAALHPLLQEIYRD
Protocol: To assess the compound’s specificity, the mammalian one-hybrid assay was conducted. In this assay, HEK-293T cells were co-transfected with a fusion plasmid of Gal4 DBD-NR LBD (comprising RXRα, RXRβ, RXRγ, PPARα, PPARβ, PPARγ, LXRα, LXRβ, GPBAR, and PXR) and the UAS-TK-Luc reporter, followed by treatment with various concentrations of the compound. The positive control consisted of the corresponding nuclear receptor agonist, and the concentration used in the experiment was set to the EC50 of the agonist.
Figure 3 Compound 10b selectively antagonized FXR. The impact of compound 10b on various NRs was evaluated using a […] one-hybrid assay in HEK-293T cells. The cells were transiently co-transfected with a fusion plasmid of Gal4 DBD-NR-LBD, which included PPARα, PPARβ, PPARγ, RXRα, RXRβ, RXRγ, LXRα, LXRβ, GPBAR, PXR, and FXR, in combination with the UAS-TK-Luc reporter. […] The values are expressed as the means ± SE of three independent experiments. *: p < 0.05 vs. RA (relative agonist).

[2] = test system: BDL rats; test: Bile duct ligation (BDL) rat model; format: in vivo; conditions: 100 mg·kg-1 oral, 14 days
Protocol: (§1) Cells and liver tissue samples were subjected to RNA extraction and purification, followed by reverse transcription of equal amounts of total RNA into […] using a Transcriptor First Strand cDNA Synthesis Kit (Roche). The relative expression levels of the target gene were determined using TaqMan probe/primers with an ABI Q3 quantitative real-time PCR system, while GAPDH/Gapdh was utilized as an internal control for mRNA expression. The fold change in the expression of the target mRNA was calculated using Equation 2^−ΔΔCt.
The study involved 24 rats that were randomly assigned to 1 of 3 groups, including sham, BDL-N.S., and BDL-10b-100mg·kg^−1, ensuring 8 animals per group using Research Randomizer (RRID: SCR_008563). Of the 24 rats, 16 underwent BDL surgery, wherein the choledochal duct was ligated with surgical sutures after administering isoflurane anesthesia. After 24 h, the BDL rats were randomly divided into […] and received daily gavages of either normal saline (BDL-NS group) or 100 mg·kg^−1 of compound 10b suspended in 0.5% sodium carboxymethylcellulose solution (BDL-10b groups) for 14 days. A healthy control group was established with eight rats undergoing sham surgery. Bodyweights were measured daily, and blood samples were collected from the abdominal aorta after an overnight fast. Euthanasia was performed using isoflurane, following which bile was collected using a syringe, and liver tissue samples were collected. Some of the samples were fixed with 4% paraformaldehyde for subsequent histological examination, while others were stored at −80 °C for further analysis.
Kits purchased from Zhongsheng Beikong Biotechnology (Beijing, China) were used to measure the serum concentrations of alanine aminotransferase, aspartate aminotransferase, alkaline phosphatase, γ-glutamyl transpeptidase, total cholesterol, total triglyceride, low-density lipoprotein (LDL), high-density lipoprotein (HDL) cholesterol, lactate dehydrogenase, total bile acid, and total bilirubin. The samples were analyzed on a Hitachi 7100 Analyzer.
The liver tissue was fixed with formalin, embedded in paraffin, and sectioned. The sections were stained with H&E, Oil Red, Masson’s, and Sirius Red. Liver necrosis, inflammation, bile duct proliferation, hepatic steatosis, and lobule inflammation were evaluated on a scale of 1–5 in a blinded manner using a Leica DM1000 microscope. Five randomly selected manifold area fields of vision were used to quantify the red area in each field of vision (eight in each group), which was counted using ImageJ software. The liver hydroxyproline concentration was determined using kits from Nanjing, China, in accordance with the manufacturer’s instructions.

[3] = test system: FXR downstream genes; test: mRNA expression of FXR downstream genes in HepG2 cells (qRT-PCR); format: cell-based; conditions: 10 μM and 1 μM, 24 h
Protocol: as §1
(A) Relative mRNA level of SHP; (B) Relative mRNA level of BSEP; (C) Relative mRNA level of CYP7A1; (D) Relative mRNA level of SREBP1c; (E) Relative mRNA level of PEPCK; (F) Expression level of G6Pase. HepG2 cells were seeded in a 6-well plate and treated with DMSO and varying concentrations of compound 10b for 24 h with or without 50 μM of 1. The mRNA levels of SHP, BSEP, CYP7A1, SREBP1c, PEPCK, and G6Pase were quantified and normalized to β-actin expression.

[4] = in the presence and absence of compound 1 (50 μM)

Structure (SMILES): CC1(C)CCC2(C(=O)O)CCC3(C)C(C(OC(=O)CCC(NC(=O)OC(C)(C)C)C(=O)OC(C)(C)C)CC4C5(C)CCC(O)C(C)(C)C5CCC43C)C2C1 [Compound 10b, 3β-hydroxy-12β-(4′-((tert-butoxycarbonyl)amide)-5′-(tert-butoxy)-L-glutamte)oxy-13H-olean-28-oic acid]
- antagonistic effects against PPARα [1]: 10–20%
- Bile TBA [2]: 249.4 ± 103.67 µmol/L
- Bile TBiL [2]: 5.8 ± 2.46 µmol/L
- Serum ALP [2]: 391.33±52.42 U·L-1
- Serum HDL [2]: 0.29 ± 0.06 mmol/L
- Serum LDL [2]: 1.06 ± 0.22 mmol/L
- Serum γ-GT [2]: 37.5±6.74 U·L-1
- Urine TBA [2]: 15.38 ± 5.76 µmol/L
- Urine TBiL [2]: 5.33 ± 1.50 µmol/L
- expression of fibrogenic genes Col1a1, Acta2, Tgfb1, Mmp2, Timp1, Itgav, Ctgf in rat liver (qRT-PCR) [2]: reduced
- liver collagen accumulation (Sirius red staining) [2]: significantly attenuated
- pathological impairments (bile duct hyperplasia, parenchymal necrosis, inflammation; H&E) [2]: substantially reduced
- liver necrosis scores (blinded assessment) ([2]; vs BDL rats): significantly lower
- expression of G6Pase (mRNA) [3]: inhibited the expression
- expression of PEPCK (mRNA) [3]: inhibited the expression
- expression of BSEP (mRNA) [3, 4]: inhibit
- expression of CYP7A1 (mRNA) [3, 4]: increasing the expression
- expression of SHP (mRNA) [3, 4]: inhibit
- expression of SREBP1c (mRNA) [3, 4]: inhibit
